Where two headings read alike, the source gives them in different places. Numbered stars: 1 amine (or outer) side, 2 acyl side, 3 side chain; on linkers, the order of the positions; unused ones are H or OH. Bridge positions count the residues as written; N and C are the ends. Square brackets hold non-standard residues; d marks the D form. Peptide text beside a SMILES is read from it. Bip(4'-Cl) = N[C@@H](Cc1ccc(-c2ccc(Cl)cc2)cc1)C(=O)O; Phe(4-CF3) = N[C@@H](Cc1ccc(C(F)(F)F)cc1)C(=O)O; Bip = N[C@@H](Cc1ccc(-c2ccccc2)cc1)C(=O)O; Phe(4-NH2) = Nc1ccc(C[C@H](N)C(=O)O)cc1; d(hPhe) = N[C@H](CCc1ccccc1)C(=O)O; d2Thi = N[C@H](Cc1cccs1)C(=O)O; Suc = O=C(CCC(=O)[*:2])[*:1]; Nphe = O=C(O)CNCc1ccccc1; Ac3c = NC1(C(=O)O)CC1; GABA = NCCCC(=O)O
What was measured:
[1] = system: TNF-α (degradation of IkB in HeLa cells or A431 cells); experiment: Human cell-based assay: inhibition of TNF-α induced degradation of IkB; conditions: for inhibition at 25 µM: 25 μM compound, read-out: Inhibition at Various Compound Concentrations, 25 μM; for inhibition at 10 µM: read-out: Inhibition at Various Compound Concentrations, 10 μM; for inhibition at 5 µM: read-out: Inhibition at Various Compound Concentrations, 5 μM
Procedure: We used a human cell-based assay to determine the TNF-α antagonistic activity of the compounds of this invention based upon the ability of the compounds to inhibit the degradation of IkB in those cells. The assay was performed on either HeLa cells or A431 cells.
On Day 1, wells of a 24-well tissue culture plate were seeded with cells that had been harvested from cultures in T-75 flasks by standard trypsin/EDTA treatment. The harvested cells were suspended in EMEM/10% FBS/P/S (100,000 HeLa cells/mL or 200,000 A431 cells/mL) and 1 mL aliquots were placed into each well. The cells were incubated overnight at 37° C. in a humidified CO2 incubator. On day 2, the cells were approximately 95% confluent.
Test and control compounds were diluted to a 1 mM solution by dilution in DMSO. The assay was run in Costar tubes. Into each tube was placed 2.5 or 5.0 μL of test compound (for testing 5 μM and 10 μM concentrations, respectively), 2.5 μL of 100× TNF-α solution (200 ng/mL TNF-α in EMEM containing 1μg/mL cycloheximide) and, for those tubes containing 2.5 μL of compound, an additional 2.5 μL of DMSO. To each tube was then added 0.5 mL of EMEM containing 1μg/mL cycloheximide. Negative control tubes contained either a) no compound, or b) no TNF-α. Tubes were then incubated for 30 minutes at room temperature.
Once incubation had begun, the media was aspirated from the cells in the 24-well plates. Sufficient EMEM/10% FBS/P/S containing 1 ug/mL cycloheximide was then added to cover the cells (approximately 3 mL) and the cells were retuned to the 37° C. humidified CO2 incubator until compound incubation was completed. The media was then aspirated from the cells, 0.2 mL of the compound solution was added and the cells re-incubated at 37° C. for 30 minutes. The plates were then placed on ice, the compound solution was aspirated from each well, and the cells washed once with 1 mL of cold PBS. Cells were then fixed with 500 μL of 3.7% formaldehyde in PBS (“fix solution”) for 20 minutes at room temperature. The fix solution was decanted and the cells permeabilized by 4× washing with 500 uL PBS/0.1% Triton X-100. After the final permeabilization wash, the cells were treated with 500 uL of Odyssey blocking buffer (OBB) and incubated at room temperature with shaking for 90 minutes.
The OBB was decanted and then to each well was then added 125 μL each of mouse anti-IkB CST#4814 (diluted 1:200 in OBB) and rabbit anti-beta-tubulin CST#2146 (diluted 1:200 in OBB). Plates were sealed with parafin and incubated overnight at room temperature with shaking.
On day 3, the antibody solution was removed from the cells and the cells were washed 5× with 0.5 mL PBST for five minutes each on a shaker. To each well was then aded 125 μL of a secondary antibody solution containing goat anti-mouse IgG-IRDye 800 and goat anti-rabbit IgG-IRDye (each diluted 1:500 in OBB+0.2% Tween 20). The plates were covered with aluminum foil and incubated for 1 hour at room temperature with shaking. The secondary antibody solution was removed and the cells washed 3× with 0.5 mL PBST for five minutes each on a shaker. Cells were then scanned by LICOR with the following settings: 700 intensity=6.0, 800 intensity=6.5; microplate2 settings with 3.0 mm offset; 169 resolution. LICOR values were fitted to an equation for a sigmoidal curve and IC50 values calculated from the fitted parameters. […] Blank cells indicate that the compound was not tested at that concentration. Certain compounds that were tested more than once and the values reflect the average of the multiple tests.

[2] = target: T1, TNFα / TNFα receptor (TNFα R1/Fc) (Homo sapiens, UniProt P01375); experiment: Inhibition of binding of TNFα to the TNFα receptor (plate ELISA competition); conditions: Table 2
T1 construct: purchased R&D Systems
T1 sequence (P01375 77-233 limits assumed, species assumed): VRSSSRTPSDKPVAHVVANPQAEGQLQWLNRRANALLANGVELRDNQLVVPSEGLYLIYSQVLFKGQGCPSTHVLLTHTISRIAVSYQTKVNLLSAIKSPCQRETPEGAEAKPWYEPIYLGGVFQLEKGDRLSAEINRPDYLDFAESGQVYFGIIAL
How it was run: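 Plates were coated with TNFα at 15 nM. Test compound and 8.33 nM receptor-Fc (PBST, 2% DMSO) were first mixed in solution for 30 min at room temperature, then transferred to the plates for another 30 min. Competition was read by absorbance at 450 nm after HRP anti-human IgG Fc detection with TMB.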

[3] = read-out: Activity (IC50, inhibition of TNFα binding to TNFα R1/Fc)
[4] = 10 μM compound, HeLa or A431 cells
[5] = Activity (IC50, inhibition of TNFα binding to TNFα R1/Fc)
[6] = 5 μM compound, HeLa or A431 cells

IC50 [2, 3] [µM]	Compound	inhibition at 25 µM ([1]; HeLa or A431 cells) [%]	inhibition at 10 µM [1, 4] [%]	inhibition at 5 µM [1] [%]	inhibition at 10 µM [1] [%]	IC50 [2, 5] [µM]	inhibition at 5 µM [1, 6] [%]
10 to 30	O=C1CCC(=O)N[C@H](Cc2cccs2)C(=O)N[C@@H](Cc2ccc(C(F)(F)F)cc2)C(=O)N[C@H](Cc2ccccc2)C(=O)N[C@H](C(=O)O)Cc2ccc(cc2)N1 [Compound 89] ([d2Thi][Phe(4-CF3)][dF][Phe(4-NH2)]-OH; linker N-4 via Suc)	< 10					
10 to 30	O=C(O)CNC(=O)[C@@H]1Cc2ccc(cc2)NC(=O)CCC(=O)N[C@H](Cc2cccs2)C(=O)N[C@@H](Cc2ccc(-c3ccccc3)cc2)C(=O)N[C@H](Cc2ccccc2)C(=O)N1 [Compound 19] ([d2Thi][Bip][dF][Phe(4-NH2)]G-OH; linker N-4 via Suc)	< 10					
< 10	O=C1CCC(=O)N[C@H](Cc2cccs2)C(=O)N[C@@H](Cc2ccc(-c3ccccc3)cc2)C(=O)N[C@H](CCc2ccccc2)C(=O)N[C@H](C(=O)O)Cc2ccc(cc2)N1 [Compound 47] ([d2Thi][Bip][d(hPhe)][Phe(4-NH2)]-OH; linker N-4 via Suc)		< 10				
	O=C1COc2ccc(cc2)C[C@@H](C(=O)N[C@H](Cc2ccccc2)C(=O)O)NC(=O)[C@@H](CCc2ccccc2)NC(=O)[C@H](Cc2ccc(-c3ccccc3)cc2)NC(=O)[C@@H](Cc2cccs2)N1 [Compound 324]			10 to 50	10 to 50	< 10	
< 10	O=C(O)[C@@H]1Cc2ccc(cc2)NC(=O)[C@H](O)[C@@H](O)C(=O)N[C@H](Cc2ccccc2)C(=O)N[C@@H](Cc2ccc(-c3ccccc3)cc2)C(=O)N[C@H](Cc2ccccc2)C(=O)N1 [Compound 313]		10 to 50				< 10
< 10	O=C(O)CN(Cc1ccccc1)C(=O)[C@@H]1Cc2ccc(cc2)NC(=O)CCC(=O)N[C@H](Cc2cccs2)C(=O)N[C@@H](Cc2ccc(-c3ccccc3)cc2)C(=O)N[C@H](Cc2ccccc2)C(=O)N1 [Compound 36] ([d2Thi][Bip][dF][Phe(4-NH2)][Nphe]-OH; linker N-4 via Suc)	< 10	50 to 80				10 to 50
10 to 30	CC(=O)NCCCC[C@@H]1NC(=O)[C@@H](Cc2ccc(-c3ccccc3)cc2)NC(=O)[C@H](Cc2cccs2)NC(=O)COc2ccc(cc2)C[C@@H](C(=O)O)NC1=O [Compound 369]		< 10				< 10
< 10	NCCCC(=O)N[C@H]1CC(=O)N[C@H](Cc2cccs2)C(=O)N[C@@H](Cc2ccc(-c3ccccc3)cc2)C(=O)N[C@H](Cc2ccccc2)C(=O)N[C@H](C(=O)O)Cc2ccc(cc2)NC1=O [Compound 381]		< 10				< 10
< 10	NCCCC(=O)N[C@@H]1CC(=O)N[C@H](Cc2cccs2)C(=O)N[C@@H](Cc2ccc(-c3ccccc3)cc2)C(=O)N[C@H](Cc2ccccc2)C(=O)N[C@H](C(=O)O)Cc2ccc(cc2)NC1=O [Compound 382]		< 10				10 to 50
< 10	O=C(O)CCCNC(=O)[C@@H]1Cc2ccc(cc2)NC(=O)CCC(=O)N[C@H](Cc2cccs2)C(=O)N[C@@H](Cc2ccc(-c3ccccc3)cc2)C(=O)N[C@H](Cc2ccccc2)C(=O)N1 [Compound 34] ([d2Thi][Bip][dF][Phe(4-NH2)][GABA]-OH; linker N-4 via Suc)	< 10					
< 10	O=C1N[C@H](CCc2ccccc2)C(=O)N[C@@H](C(=O)O)Cc2ccc(cc2)NC(=O)[C@H](O)[C@@H](O)C(=O)N[C@H](Cc2ccccc2)C(=O)N[C@H]1Cc1ccc(Br)cc1 [Compound 237]		< 10				< 10
< 10	O=C(N[C@H](Cc1ccccc1)C(=O)O)[C@@H]1Cc2ccc(cc2)NC(=O)[C@H](O)[C@@H](O)C(=O)N[C@H](Cc2cccs2)C(=O)N[C@@H](Cc2ccc(-c3ccccc3)cc2)C(=O)N[C@H](Cc2ccccc2)C(=O)N1 [Compound 16]		< 10				
< 10	O=C(O)[C@H](Cc1ccccc1)NC(=O)[C@@H]1Cc2ccc(cc2)NC(=O)[C@H](O)[C@@H](O)C(=O)N[C@H](Cc2ccc(F)c(F)c2)C(=O)N[C@@H](Cc2ccc(-c3ccccc3)cc2)C(=O)N[C@H](Cc2ccccc2)C(=O)N1 [Compound 282]		10 to 50				50 to 80
< 10	O=C(O)CCCNC(=O)[C@@H]1Cc2ccc(cc2)OCC(=O)N[C@H](Cc2cccs2)C(=O)N[C@@H](Cc2ccc(-c3ccccc3)cc2)C(=O)N[C@H](CCc2ccccc2)C(=O)N1 [Compound 298]		< 10				< 10
< 10	O=C(O)[C@@H]1Cc2ccc(cc2)NC(=O)[C@H](O)[C@@H](O)C(=O)N[C@H](Cc2cccs2)C(=O)N[C@@H](Cc2ccc(-c3ccc(Cl)cc3)cc2)C(=O)N[C@H](Cc2ccccc2)C(=O)N1 [Compound 180]		< 10				< 10
< 10	O=C1CCC(=O)N[C@H](CCc2ccccc2)C(=O)N[C@@H](Cc2ccc(-c3ccc(Cl)cc3)cc2)C(=O)N[C@H](Cc2ccccc2)C(=O)N[C@H](C(=O)O)Cc2ccc(cc2)N1 [Compound 116] ([d(hPhe)][Bip(4'-Cl)][dF][Phe(4-NH2)]-OH; linker N-4 via Suc)		< 10				10 to 50
< 10	COC(=O)[C@H](CC(=O)O)NC(=O)[C@@H]1Cc2ccc(cc2)OCC(=O)N[C@@H](Cc2cccs2)C(=O)N[C@@H](Cc2ccc(-c3ccccc3)cc2)C(=O)N[C@@H](Cc2ccccc2)C(=O)N1 [Compound 327]		< 10				10 to 50
< 10	O=C(O)CCCCCNC(=O)[C@@H]1Cc2ccc(cc2)OCC(=O)N[C@H](Cc2cccs2)C(=O)N[C@@H](Cc2ccc(-c3ccccc3)cc2)C(=O)N[C@H](CCc2ccccc2)C(=O)N1 [Compound 395]		< 10				< 10
	O=C1COc2ccc(cc2)C[C@@H](C(=O)NC2(C(=O)O)CC2)NC(=O)[C@H](Cc2ccccc2)NC(=O)[C@H](Cc2ccc(-c3ccccc3)cc2)NC(=O)[C@H](Cc2cccs2)N1 [Compound 344]			10 to 50	50 to 80	< 10	
< 10	COC(=O)c1ccc(-c2ccc(C[C@@H]3NC(=O)[C@@H](Cc4cccs4)NC(=O)[C@H](O)[C@@H](O)C(=O)Nc4ccc(cc4)C[C@@H](C(=O)O)NC(=O)[C@@H](Cc4ccccc4)NC3=O)cc2)cc1 [Compound 332]						< 10
< 10	O=C1CCC(=O)N[C@H](Cc2cccs2)C(=O)N[C@@H](Cc2ccc(-c3ccccc3)cc2)C(=O)N[C@H](Cc2ccccc2)C(=O)N[C@H](C(=O)NC2(C(=O)O)CC2)Cc2ccc(cc2)N1 [Compound 39] ([d2Thi][Bip][dF][Phe(4-NH2)][Ac3c]-OH; linker N-4 via Suc)		10 to 50				

Compound	IC50 [2, 3] [µM]	inhibition at 25 µM ([1]; HeLa or A431 cells) [%]	inhibition at 10 µM [1, 4] [%]	inhibition at 5 µM [1] [%]	inhibition at 10 µM [1] [%]	IC50 [2, 5] [µM]	inhibition at 5 µM [1, 6] [%]
O=C1COc2ccc(cc2)C[C@@H](C(=O)O)NC(=O)[C@H](Cc2ccccc2)NC(=O)[C@H](Cc2ccc(-c3ccccc3)cc2)NC(=O)[C@H](Cc2cccs2)N1 [Compound 212]	< 10			< 10	< 10		

— patent publication US8338565B2, “Macrocyclic compounds for inhibition of tumor necrosis factor alpha” (Ensemble Therapeutics Corporation, priority 2008, dated 2012)
